Test results: patent US20070099938A1, “Antistress drug and medical use thereof” (ONO PHARMACEUTICAL CO., LTD., priority 2003, published 2007)
pKi: −log10 of the molar value.

Target: T1, MBR (Rattus norvegicus, UniProt P16257)
T1 construct: from tissue; host or cells: whole brain without cerebellum of male Wistar rats, crude membrane pellet
Experiment: Receptor binding experiment ([3H]PK11195 competition, rat brain membrane preparation)
Settings: [3H]PK11195 0.5 or 1 nmol/L, Cheng and Prusoff from KD and IC50
Procedure: The affinity of the compounds in the present invention to MBR was determined using rat brain membrane preparation. In addition, the measurement in the present invention was improved the accuracy of measurement and the sensitivity of measurement for evaluating the compounds in the present invention as follows. After male Wister rats were decapitated to extirpate the whole brain and cerebellums were removed. They were homogenized in ice-cold 50 mmol/L Tris-HCL buffer solution (pH 7.4), centrifuged and the obtained pellets were washed. The pellets resuspended and adjusted to about 1 mg/mL were used as rat brain membrane preparations for binding assay. The binding assay were experimented using [^3H]PK11195 as a MBR selective ligand. […]
To determine the amount of total binding in saturation binding experiment, membrane preparations, various concentrations of [^3H]PK11195, final concentration: 0.5 vol % dimethylsulfoxide (DMSO) and 50 mmol/L Tris-HCL buffer solution (pH 7.4) were mixed (total volume 200 μL) and were incubated for 1 hour at room temperature. […] The filter was dried and then the radioactivity on the filter was measured by liquid scintillation counter. The data obtained by the binding experiments were Scatchard analyzed using analysis software, KELL (Ver.6, BIOSOFT) and the dissociation constant (KD value) was determined. […]

pKi | SMILES
6.44 | CC(=O)Nc1cccc(-c2ccnc(NC(=O)c3ccccc3)n2)c1 [Example 3(46), N-{4-[3-(acetylamino)phenyl]pyrimidin-2-yl}benzamide]
8.00 | O=S(=O)(Nc1nccc(-c2cc(OC(F)F)ccc2OC(F)F)n1)c1ccccc1 [Example 5(2), N-{4-[2,5-bis(difluoromethoxy)phenyl]pyrimidin-2-yl}benzenesulfonamide]
